The test relates to Bacillus cereus. Put plainly: Inhibition of Bacillus cereus PC-PLC assessed as residual activity at 10 uM using phosphatidylcholine as substrate measured after 1 hr by horseradish peroxidase/alkaline phosphatase/choline oxidase-coupled amplex red reagent based fluorescence assay relative to control.
In the case of `CN1CCN(c2ccc(NCc3ccccc3O)cc2)CC1`, the Activity was 13.4%.
With `O=C(O)c1cc(NCc2ccc(F)cc2)ccc1N1CCOCC1` the figure was 30.3%.
For `Fc1ccc(CNc2ccc(N3CCNCC3)cc2)cc1`, the Activity is 21.1%.
Regarding `CC(C)(C)OC(=O)N1CCN(c2ccc(NCc3cccc(F)c3)cc2)CC1`, the Activity turned out to be 33.5%.
Take `Oc1ccccc1CNc1ccc(N2CCOCC2)cc1`: the Activity worked out at 0%.
Consider `COc1ccccc1CNc1ccc(N2CCOCC2)cc1`, for which the Activity was 1.2%.
With `COC(=O)c1cc(NCc2ccccc2F)ccc1N1CCOCC1` the figure was 56.8%; with `c1ccc(Oc2cccc(CNc3ccc(N4CCOCC4)cc3)c2)cc1`, 39.3%.
In the case of `O=C(O)c1cc(NCc2ccccc2O)ccc1N1CCOCC1`, the Activity came to 40%.
Turning to `CN1CCN(c2ccc(NCc3ccccc3F)cc2)CC1`, the Activity was 42.7%.
As to `CC(C)(C)OC(=O)N1CCN(c2ccc(NCc3ccc(Cl)cc3)cc2)CC1`, the Activity is 53.3%.
In the case of `Cc1cc(C)c(CNc2ccc(N3CCOCC3)cc2)c(C)c1`, the Activity was found to be 28.9%.
Regarding `COC(=O)c1cc(NCc2ccccc2Cl)ccc1N1CCOCC1`, the Activity amounted to 73.1%.
Turning to `Clc1cccc(CNc2ccc(N3CCNCC3)cc2)c1`, the Activity was determined as 27.4%.
With `Cc1ccc(CNc2ccc(N3CCOCC3)c(C(=O)O)c2)cc1` the figure was 33.4%; with `COC(=O)c1cc(NCc2cccc(C)c2)ccc1N1CCOCC1`, 54%; with `CC(C)(C)OC(=O)N1CCN(c2ccc(NCc3ccccc3O)cc2)CC1`, 26.5%.
Take `COC(=O)c1cc(NCc2cccc(Oc3ccccc3)c2)ccc1N1CCOCC1`: the Activity was found to be 130%.
Consider `Clc1ccccc1CNc1ccc(N2CCCCC2)cc1`, for which the Activity turned out to be 22.6%.
Regarding `Cc1cccc(CNc2ccc(N3CCOCC3)cc2)c1`, the Activity came out at 8.3%.
For the compound `Clc1cccc(CNc2ccc(N3CCOCC3)cc2)c1`, the Activity came out at 9.1%.
For `COC(=O)c1cc(NCc2ccc(O)cc2)ccc1N1CCOCC1`, the Activity amounted to 48.3%.
For the compound `O=C(O)c1cc(NCc2ccccc2F)ccc1N1CCOCC1`, the Activity was found to be 29.9%.
For `O=C(O)c1cc(NCc2ccccc2C(F)(F)F)ccc1N1CCOCC1` the value was 34.1%; for `CN1CCN(c2ccc(NCc3ccc(O)cc3)cc2)CC1`, 9.4%.
Turning to `O=C(O)c1cc(NCc2cccc(Oc3ccccc3)c2)ccc1N1CCOCC1`, the Activity is 47.5%.
With `c1ccc(CNc2ccc(N3CCNCC3)cc2)cc1` the figure was 26.3%; with `COC(=O)c1cc(NCc2ccccc2OC)ccc1N1CCOCC1`, 43.7%.
As to `Fc1ccc(CNc2ccc(N3CCCCC3)cc2)cc1`, the Activity stood at 6.6%.
As to `COc1ccc(CNc2ccc(N3CCOCC3)cc2)cc1`, the Activity is 3.2%.
Take `c1ccc(CNc2ccc(N3CCCCC3)cc2)cc1`: the Activity stood at 8.1%.
With `COC(=O)c1cc(NCc2ccccc2)ccc1N1CCOCC1`, the Activity was found to be 57.7%.
With `COC(=O)c1cc(NCc2cccc(Cl)c2)ccc1N1CCOCC1` the figure was 65.6%.
`Brc1ccccc1CNc1ccc(N2CCCCC2)cc1`: the Activity was 28%.
Consider `Brc1cccc(CNc2ccc(N3CCOCC3)cc2)c1`, for which the Activity came to 11.6%.
Turning to `COC(=O)c1cc(NCc2cccc(O)c2)ccc1N1CCOCC1`, the Activity was 52.8%.
With `COc1cccc(CNc2ccc(N3CCOCC3)c(C(=O)O)c2)c1`, the Activity worked out at 28.1%.
As for `CC(C)(C)OC(=O)N1CCN(c2ccc(NCc3ccc(F)cc3)cc2)CC1`, the Activity was found to be 68.3%.
For the compound `O=C(O)c1cc(NCc2ccc(Br)cc2)ccc1N1CCOCC1`, the Activity came out at 28.7%.
Turning to `COC(=O)c1cc(NCc2ccccc2C(F)(F)F)ccc1N1CCOCC1`, the Activity came to 83%.
With `CN1CCN(c2ccc(NCc3cccc(Cl)c3)cc2)CC1` the figure was 19.5%; with `CN1CCN(c2ccc(NCc3ccccc3Br)cc2)CC1`, 20%.
On to `O=C(O)c1cc(NCc2cccc(Br)c2)ccc1N1CCOCC1`, for which the Activity is 20.4%.
For the compound `Cc1ccccc1CNc1ccc(N2CCN(C(=O)OC(C)(C)C)CC2)cc1`, the Activity turned out to be 32.2%.
In the case of `Clc1ccccc1CNc1ccc(N2CCNCC2)cc1`, the Activity is 31%.
With `Clc1ccccc1CNc1ccc(N2CCOCC2)cc1` the figure was 7.9%; with `COc1ccccc1CNc1ccc(N2CCNCC2)cc1`, 27.7%.
For `Clc1ccc(CNc2ccc(N3CCNCC3)cc2)cc1` the value was 31.3%; for `Cc1ccccc1CNc1ccc(N2CCOCC2)c(C(=O)O)c1`, 35%; for `FC(F)(F)c1ccccc1CNc1ccc(N2CCNCC2)cc1`, 30.4%.
Turning to `CN1CCN(c2ccc(NCc3ccccc3C(F)(F)F)cc2)CC1`, the Activity was 25.4%.
As for `COC(=O)c1cc(NCc2ccc(Cl)cc2)ccc1N1CCOCC1`, the Activity is 87.5%.
With `Oc1ccccc1CNc1ccc(N2CCNCC2)cc1`, the Activity worked out at 37.9%.
For `Oc1ccc(CNc2ccc(N3CCCCC3)cc2)cc1` the value was 11%; for `Brc1ccccc1CNc1ccc(N2CCNCC2)cc1`, 26.8%; for `CC(C)(C)OC(=O)N1CCN(c2ccc(NCc3ccccc3C(F)(F)F)cc2)CC1`, 41.3%.
For `CC(C)(C)OC(=O)N1CCN(c2ccc(NCc3ccc(O)cc3)cc2)CC1` the value was 23.9%.
As to `O=C(O)c1cc(NCc2ccc(Cl)cc2)ccc1N1CCOCC1`, the Activity turned out to be 26.7%.
With `O=C(O)c1cc(NCc2ccccc2Cl)ccc1N1CCOCC1`, the Activity was 11.5%.
With `COc1ccccc1CNc1ccc(N2CCN(C(=O)OC(C)(C)C)CC2)cc1`, the Activity came out at 19.9%.
With `Clc1ccc(CNc2ccc(N3CCCCC3)cc2)cc1` the figure was 23%; with `Fc1cccc(CNc2ccc(N3CCOCC3)cc2)c1`, 6.1%.
For `FC(F)(F)c1cccc(CNc2ccc(N3CCOCC3)cc2)c1`, the Activity turned out to be 23.4%.
For `COC(=O)c1cc(NCc2cccc(Br)c2)ccc1N1CCOCC1` the value was 60.9%.
`COC(=O)c1cc(NCc2ccc(OC)cc2)ccc1N1CCOCC1`: the Activity was 58.9%.
Take `O=C(O)c1cc(NCc2cccc(F)c2)ccc1N1CCOCC1`: the Activity came to 49.5%.
For `Cc1ccccc1CNc1ccc(N2CCN(C)CC2)cc1` the value was 40.9%; for `Oc1ccc(CNc2ccc(N3CCOCC3)cc2)cc1`, 6.5%.
Take `FC(F)(F)c1ccc(CNc2ccc(N3CCOCC3)cc2)cc1`: the Activity was 27.6%.
For the compound `COC(=O)c1cc(NCc2ccccc2Br)ccc1N1CCOCC1`, the Activity was 56.7%.
As to `Cc1ccccc1CNc1ccc(N2CCNCC2)cc1`, the Activity came to 29.3%.
On to `CN1CCN(c2ccc(NCc3cccc(F)c3)cc2)CC1`, for which the Activity was determined as 44.2%.
As for `COc1ccc(CNc2ccc(N3CCOCC3)c(C(=O)O)c2)cc1`, the Activity was found to be 32.3%.
For the compound `c1ccc(CNc2ccc(N3CCOCC3)cc2)cc1`, the Activity is 0%.
For `O=C(O)c1cc(NCc2ccc(O)cc2)ccc1N1CCOCC1`, the Activity was found to be 43.8%.
Turning to `COC(=O)c1cc(NCc2ccc(C)cc2)ccc1N1CCOCC1`, the Activity is 54.3%.
With `CN1CCN(c2ccc(NCc3cccc(O)c3)cc2)CC1`, the Activity stood at 12.7%.
As for `CN1CCN(c2ccc(NCc3ccccc3Cl)cc2)CC1`, the Activity is 29.7%.
As for `CC(C)(C)OC(=O)N1CCN(c2ccc(NCc3ccccc3)cc2)CC1`, the Activity came to 42.3%.
On to `O=C(O)c1cc(NCc2cccc(O)c2)ccc1N1CCOCC1`, for which the Activity worked out at 41.6%.
Take `O=C(O)c1cc(NCc2ccccc2Br)ccc1N1CCOCC1`: the Activity is 40.4%.
With `COC(=O)c1cc(NCc2ccc(-c3ccccc3)cc2)ccc1N1CCOCC1` the figure was 100%.
Regarding `COC(=O)c1cc(NCc2cccc(F)c2)ccc1N1CCOCC1`, the Activity stood at 64.5%.
Turning to `Cc1cc(C)c(CNc2ccc(N3CCOCC3)c(C(=O)O)c2)c(C)c1`, the Activity is 45.3%.
Turning to `O=C(O)c1cc(NCc2ccc(-c3ccccc3)cc2)ccc1N1CCOCC1`, the Activity is 40.1%.
With `Cc1ccccc1CNc1ccc(N2CCOCC2)cc1`, the Activity came to 2.2%.
On to `CC(C)(C)OC(=O)N1CCN(c2ccc(NCc3ccccc3Cl)cc2)CC1`, for which the Activity came to 43.2%.
Regarding `Fc1cccc(CNc2ccc(N3CCCCC3)cc2)c1`, the Activity worked out at 10.7%.
For `FC(F)(F)c1ccccc1CNc1ccc(N2CCCCC2)cc1`, the Activity was found to be 49.3%.
Turning to `Clc1ccc(CNc2ccc(N3CCOCC3)cc2)cc1`, the Activity turned out to be 12.9%.
Regarding `COC(=O)c1cc(NCc2cccc(OC)c2)ccc1N1CCOCC1`, the Activity worked out at 64.6%.
Regarding `CN1CCN(c2ccc(NCc3ccccc3)cc2)CC1`, the Activity is 31.5%.
Consider `Oc1ccc(CNc2ccc(N3CCNCC3)cc2)cc1`, for which the Activity was 51.3%.
With `COC(=O)c1cc(NCc2ccccc2O)ccc1N1CCOCC1`, the Activity came out at 38.6%.
On to `COC(=O)c1cc(NCc2c(C)cc(C)cc2C)ccc1N1CCOCC1`, for which the Activity was determined as 96.8%.
Consider `Oc1ccccc1CNc1ccc(N2CCCCC2)cc1`, for which the Activity stood at 14.8%.
With `Fc1cccc(CNc2ccc(N3CCNCC3)cc2)c1` the figure was 26%.
For `Oc1cccc(CNc2ccc(N3CCOCC3)cc2)c1` the value was 3.4%.
With `Oc1cccc(CNc2ccc(N3CCNCC3)cc2)c1`, the Activity turned out to be 30.9%.
Regarding `CC(C)(C)OC(=O)N1CCN(c2ccc(NCc3cccc(Cl)c3)cc2)CC1`, the Activity worked out at 36.8%.
For `Cc1ccc(CNc2ccc(N3CCOCC3)cc2)cc1` the value was 5.4%; for `O=C(O)c1cc(NCc2cccc(C(F)(F)F)c2)ccc1N1CCOCC1`, 44.6%; for `COc1ccccc1CNc1ccc(N2CCCCC2)cc1`, 9.9%.
`COc1ccccc1CNc1ccc(N2CCN(C)CC2)cc1`: the Activity turned out to be 29.3%.
For `CC(C)(C)OC(=O)N1CCN(c2ccc(NCc3cccc(O)c3)cc2)CC1` the value was 18.4%.
Consider `COC(=O)c1cc(NCc2ccc(C(F)(F)F)cc2)ccc1N1CCOCC1`, for which the Activity is 78.6%.
Consider `Clc1cccc(CNc2ccc(N3CCCCC3)cc2)c1`, for which the Activity came to 24.7%.
Regarding `Fc1ccc(CNc2ccc(N3CCOCC3)cc2)cc1`, the Activity was 1.8%.

These data come from ChEMBL document CHEMBL4680202, “Development, synthesis and biological investigation of a novel class of potent PC-PLC inhibitors” (Eur J Med Chem, 2020).
